In patent publication US20190070182A1, “USES OF PYRIMIDO-PYRIDAZINONES TO TREAT CANCER” (Asana Biosciences, LLC, priority 2015, published 2019):
Each block holds one compound with its values, some of them ahead of it.

What was measured:
[1] = tested on: DLBCL xenograft derived from Pfeiffer cell line; assay: DLBCL xenograft mouse model (Pfeiffer); type: in vivo; conditions: Pfeiffer cell line (FIG. 3)
[2] = tested on: hematological malignant cell lines (leukemia, lymphoma, multiple myelomas); assay: antiproliferative activity, hematological malignant cell line panel; type: cell-based; conditions: cell line panel representing leukemia, multiple myelomas (FIG. 2)
HCC1806 = assay: antiproliferative activity, solid tumor cell line; type: cell-based; conditions: Homo sapiens; HCC1806, Breast
Procedure: (§1) Example 2. The Anti-Cancer Activity of ASN002 was Also Evaluated in Many Solid Tumor Cell Lines.

KE39 = assay: antiproliferative activity, solid tumor cell line; type: cell-based; conditions: KE39, Gastric
Procedure: as §1

TCCSUP = assay: antiproliferative activity, solid tumor cell line; type: cell-based; conditions: Homo sapiens, TCC-SUP, Bladder
Procedure: as §1

EAhy296 = assay: antiproliferative activity, solid tumor cell line; type: cell-based; conditions: EAhy296, Endothelial
Procedure: as §1

HepG2 = assay: antiproliferative activity, solid tumor cell line; type: cell-based; conditions: Homo sapiens; HepG2, Liver
Procedure: as §1

A549 = assay: antiproliferative activity, solid tumor cell line; type: cell-based; conditions: Homo sapiens; A549, Lung
Procedure: as §1

MCF7 = assay: antiproliferative activity, solid tumor cell line; type: cell-based; conditions: Homo sapiens; MCF7, Breast
Procedure: as §1

Caki1 = assay: antiproliferative activity, solid tumor cell line; type: cell-based; conditions: Homo sapiens, CAKI-1; Caki1, Kidney
Procedure: as §1

AsPC1 = assay: antiproliferative activity, solid tumor cell line; type: cell-based; conditions: Homo sapiens; AsPC1, Pancreas
Procedure: as §1

DU145 = assay: antiproliferative activity, solid tumor cell line; type: cell-based; conditions: Homo sapiens, DU-145; DU145, Prostate
Procedure: as §1

HCC1937 = assay: antiproliferative activity, solid tumor cell line; type: cell-based; conditions: Homo sapiens; HCC1937, Breast
Procedure: as §1

SW480 = assay: antiproliferative activity, solid tumor cell line; type: cell-based; conditions: Homo sapiens; SW480, Colon
Procedure: as §1

H1581 = assay: antiproliferative activity, solid tumor cell line; type: cell-based; conditions: Homo sapiens, NCI-H1581; H1581, Lung
Procedure: as §1

HT1197 = assay: antiproliferative activity, solid tumor cell line; type: cell-based; conditions: Homo sapiens; HT1197, Bladder
Procedure: as §1

SKMEL2 = assay: antiproliferative activity, solid tumor cell line; type: cell-based; conditions: Homo sapiens, SK-MEL-2; SKMEL2, Melanoma
Procedure: as §1

SCaBER = assay: antiproliferative activity, solid tumor cell line; type: cell-based; conditions: Homo sapiens, Bladder
Procedure: as §1

HT1376 = assay: antiproliferative activity, solid tumor cell line; type: cell-based; conditions: Homo sapiens, HT-1376; HT1376, Bladder
Procedure: as §1

C33A = assay: antiproliferative activity, solid tumor cell line; type: cell-based; conditions: Homo sapiens, C-33-A, Cervical
Procedure: as §1

JEG3 = assay: antiproliferative activity, solid tumor cell line; type: cell-based; conditions: Homo sapiens, JEG-3; JEG3, Placenta
Procedure: as §1

SKHEP1 = assay: antiproliferative activity, solid tumor cell line; type: cell-based; conditions: Homo sapiens, SK-HEP1; SKHEP1, Endothelial
Procedure: as §1

5637 = assay: antiproliferative activity, solid tumor cell line; type: cell-based; conditions: 5637, Bladder
Procedure: as §1

SW780 = assay: antiproliferative activity, solid tumor cell line; type: cell-based; conditions: Homo sapiens; SW780, Bladder
Procedure: as §1

UMUC3 = assay: antiproliferative activity, solid tumor cell line; type: cell-based; conditions: Homo sapiens; UMUC3, Bladder
Procedure: as §1

MDAMB453 = assay: antiproliferative activity, solid tumor cell line; type: cell-based; conditions: Homo sapiens, MDA-MB-453; MDAMB453, Breast
Procedure: as §1

BxPC3 = assay: antiproliferative activity, solid tumor cell line; type: cell-based; conditions: Homo sapiens, BXPC-3; BxPC3, Pancreas
Procedure: as §1

MDAMB468 = assay: antiproliferative activity, solid tumor cell line; type: cell-based; conditions: Homo sapiens, MDA-MB-468; MDAMB468, Breast
Procedure: as §1

PC3 = assay: antiproliferative activity, solid tumor cell line; type: cell-based; conditions: Homo sapiens, PC-3; PC3, Prostate
Procedure: as §1

Y79 = assay: antiproliferative activity, solid tumor cell line; type: cell-based; conditions: Homo sapiens; Y79, Retiblastoma
Procedure: as §1

Hec1A = assay: antiproliferative activity, solid tumor cell line; type: cell-based; conditions: Homo sapiens, HEC-1-A, Endometrial
Procedure: as §1

MDA-MB-231 = assay: antiproliferative activity, solid tumor cell line; type: cell-based; conditions: Homo sapiens; MDA-MB-231, Breast
Procedure: as §1

U87MG = assay: antiproliferative activity, solid tumor cell line; type: cell-based; conditions: Homo sapiens, U-87 MG, Glioblastoma
Procedure: as §1

H1299 = assay: antiproliferative activity, solid tumor cell line; type: cell-based; conditions: Homo sapiens, NCI-H1299; H1299, Lung
Procedure: as §1

HCT116 = assay: antiproliferative activity, solid tumor cell line; type: cell-based; conditions: Homo sapiens, HCT-116; HCT116, Colon
Procedure: as §1

T24 = assay: antiproliferative activity, solid tumor cell line; type: cell-based; conditions: Homo sapiens, T-24; T24, Bladder
Procedure: as §1

MDAMB361 = assay: antiproliferative activity, solid tumor cell line; type: cell-based; conditions: Homo sapiens, MDA-MB-361; MDAMB361, Breast
Procedure: as §1

J82 = assay: antiproliferative activity, solid tumor cell line; type: cell-based; conditions: Homo sapiens; J82, Bladder
Procedure: as §1

H1975 = assay: antiproliferative activity, solid tumor cell line; type: cell-based; conditions: Homo sapiens, NCI-H1975; H1975, Lung
Procedure: as §1

BT474 = assay: antiproliferative activity, solid tumor cell line; type: cell-based; conditions: Homo sapiens, BT-474; BT474, Breast
Procedure: as §1

SKOV3 = assay: antiproliferative activity, solid tumor cell line; type: cell-based; conditions: Homo sapiens, SK-OV-3; SKOV3, Ovarian
Procedure: as §1

LoVo = assay: antiproliferative activity, solid tumor cell line; type: cell-based; conditions: Homo sapiens, Colon
Procedure: as §1

MKN1 = assay: antiproliferative activity, solid tumor cell line; type: cell-based; conditions: Homo sapiens, MKN-1; MKN1, Gastric
Procedure: as §1

MIAPACA2 = assay: antiproliferative activity, solid tumor cell line; type: cell-based; conditions: Homo sapiens, MIA PaCa-2; MIAPACA2, Pancreas
Procedure: as §1

HCC1954 = assay: antiproliferative activity, solid tumor cell line; type: cell-based; conditions: Homo sapiens; HCC1954, Breast
Procedure: as §1

ZR75 = assay: antiproliferative activity, solid tumor cell line; type: cell-based; conditions: ZR75, Breast
Procedure: as §1

LNCaP = assay: antiproliferative activity, solid tumor cell line; type: cell-based; conditions: Homo sapiens, Prostate
Procedure: as §1

A375 = assay: antiproliferative activity, solid tumor cell line; type: cell-based; conditions: Homo sapiens, A-375; A375, Melanoma
Procedure: as §1

SW1990 = assay: antiproliferative activity, solid tumor cell line; type: cell-based; conditions: Homo sapiens; SW1990, Pancreas
Procedure: as §1

HUG1N = assay: antiproliferative activity, solid tumor cell line; type: cell-based; conditions: Gasrtic
Procedure: as §1

CFPac1 = assay: antiproliferative activity, solid tumor cell line; type: cell-based; conditions: Homo sapiens, CFPAC-1; CFPac1, Pancreas
Procedure: as §1

CAOV3 = assay: antiproliferative activity, solid tumor cell line; type: cell-based; conditions: Homo sapiens, Caov-3; CAOV3, Ovary
Procedure: as §1

MFE296 = assay: antiproliferative activity, solid tumor cell line; type: cell-based; conditions: Homo sapiens, MFE-296; MFE296, Endometrial
Procedure: as §1

HeLa = assay: antiproliferative activity, solid tumor cell line; type: cell-based; conditions: Homo sapiens, Cervical
Procedure: as §1

BT20 = assay: antiproliferative activity, solid tumor cell line; type: cell-based; conditions: Homo sapiens, BT-20; BT20, Breast
Procedure: as §1

HT29 = assay: antiproliferative activity, solid tumor cell line; type: cell-based; conditions: Homo sapiens, HT-29; HT29, Colon
Procedure: as §1

SKMEL28 = assay: antiproliferative activity, solid tumor cell line; type: cell-based; conditions: Homo sapiens, SK-MEL-28; SKMEL28, Melanoma
Procedure: as §1

Colo205 = assay: antiproliferative activity, solid tumor cell line; type: cell-based; conditions: Homo sapiens, COLO 205; Colo205, Colon
Procedure: as §1

H460 = assay: antiproliferative activity, solid tumor cell line; type: cell-based; conditions: Homo sapiens, NCI-H460; H460, Lung
Procedure: as §1

MFM-223 = assay: antiproliferative activity, solid tumor cell line; type: cell-based; conditions: Homo sapiens; MFM-223, Breast
Procedure: as §1

[3] = tested on: human erythroleukemia model derived from HEL cell line; assay: mouse model of human erythroleukemia (HEL); type: in vivo; conditions: HEL cell line (FIG. 6)
[4] = tested on: DLBCL xenograft derived from SU-DHL-6 cell line; assay: DLBCL xenograft mouse model (SU-DHL-6); type: in vivo; conditions: SU-DHL-6 cell line (FIG. 4)
[5] = tested on: Pfeiffer (DLBCL cell line); assay: caspase 3/7 apoptosis assay; type: cell-based; conditions: Homo sapiens, 24-hour treatment (FIG. 1), read-out: EC50, induced apoptosis (caspase 3/7 assay)
[6] = tested on: Pfeiffer ("Parental") DLBCL cell line; assay: cell proliferation, Pfeiffer parental; type: cell-based; conditions: Homo sapiens
Procedure: (§2) This activity of ASN002 was assessed using a diffuse large B-cell lymphoma (DLBCL) cell line, Pfeiffer (“Parental”); and an ibrutinib-resistant variant of the same cell line (“Ibrutinib-R”), which was developed by growing the cells in the presence of increasing concentrations of ibrutinib. Pools of ibrutinib-resistant cells were tested in this study. The drug idelalisib (which was approved by the FDA in […] for the treatment of B-cell blood cancers) was used for comparison as a reference compound. The data are set forth in Table A (IC50 is the half maximal inhibitory concentration).

[7] = tested on: ibrutinib-resistant variant of Pfeiffer ("Ibrutinib-R"); assay: cell proliferation, ibrutinib-resistant Pfeiffer; type: cell-based; conditions: Homo sapiens, pools of resistant cells
Procedure: as §2

[8] = tested on: multiple myeloma model derived from H929 cell line; assay: mouse model of multiple myeloma (H929); type: in vivo; conditions: H929 cell line (FIG. 5)

IC50 (HCC1806): 1.63 µM
IC50 (KE39): 0.86 µM
IC50 (TCCSUP): 0.34 µM
IC50 (EAhy296): 1.8 µM
IC50 (HepG2): 0.24 µM
IC50 (A549): 0.46 µM
IC50 (MCF7): 0.6 µM
IC50 (Caki1): 0.33 µM
IC50 (AsPC1): 0.84 µM
IC50 (DU145): 0.99 µM
IC50 (HCC1937): > 10 µM
IC50 (SW480): 0.6 µM
IC50 (H1581): 0.38 µM
IC50 (HT1197): 0.54 µM
IC50 (SKMEL2): 1.03 µM
IC50 (SCaBER): 0.45 µM
IC50 (HT1376): 0.09 µM
IC50 (C33A): 0.5 µM
IC50 (JEG3): > 10 µM
IC50 (SKHEP1): > 10 µM
IC50 5637: 0.42 µM
IC50 (SW780): > 10 µM
IC50 (UMUC3): 2.28 µM
IC50 (MDAMB453): 1.74 µM
IC50 (BxPC3): 0.66 µM
IC50 (MDAMB468): 1.46 µM
IC50 (PC3): 1.98 µM
IC50 (Y79): > 10 µM
IC50 (Hec1A): 0.66 µM
IC50 (MDA-MB-231): 0.77 µM
IC50 (U87MG): > 10 µM
IC50 (H1299): > 10 µM
IC50 (HCT116): 0.43 µM
IC50 (T24): 0.44 µM
IC50 (MDAMB361): 0.49 µM
IC50 (J82): 2.75 µM
IC50 (H1975): 0.85 µM
IC50 (BT474): > 10 µM
IC50 (SKOV3): 0.73 µM
IC50 (LoVo): 0.15 µM
IC50 (MKN1): 0.88 µM
IC50 (MIAPACA2): 2.77 µM
IC50 (HCC1954): > 10 µM
IC50 (ZR75): 0.42 µM
IC50 (LNCaP): 1.07 µM
IC50 (A375): 0.61 µM
IC50 (SW1990): 1.62 µM
IC50 (HUG1N): 0.81 µM
IC50 (CFPac1): 0.85 µM
IC50 (CAOV3): 0.42 µM
IC50 (MFE296): 0.88 µM
IC50 (HeLa): 0.77 µM
IC50 (BT20): 2.13 µM
IC50 (HT29): 0.3 µM
IC50 (SKMEL28): > 10 µM
IC50 (Colo205): 0.61 µM
IC50 (H460): 0.91 µM
IC50 (MFM-223): 0.4 µM
EC50 [5]: 0.12 µM
Compound: N#CCC1CCN(c2nc(Nc3ccc(N4CCC(O)CC4)cc3)c3c(=O)[nH]ncc3n2)CC1 [ASN002, 2-(1-(4-((4-(4-hydroxypiperidin-1-yl)phenyl)amino)-5-oxo-5,6-dihydropyrimido[4,5-d]pyridazin-2-yl)piperidin-4-yl)acetonitrile]
tumor growth [1]: inhibited tumor growth
antiproliferative activity [2]: strong antiproliferative activity
hind limb paralysis [3]: delayed the hind limb paralysis
tumor growth [4]: inhibited tumor growth
IC50 [6]: 0.08 µM
IC50 [7]: 0.32 µM
tumor growth [8]: inhibited tumor growth

Compound: CC[C@H](Nc1ncnc2[nH]cnc12)c1nc2cccc(F)c2c(=O)n1-c1ccccc1 [Idelalisib, idelalisib]
IC50 [6]: 0.13 µM
IC50 [7]: > 10 µM
